The record followed here is paper PMC7549094 (Journal of Medicinal Chemistry, 2020).

pEC50, pIC50: −log10 of the molar value. ≈ marks a conversion by molar mass, not a printed value. Like-named read-outs stand apart in the source and are kept apart here. Some results are limits rather than exact numbers.

In data set [1] the target is wild-type (PSMB4^WT) L. tarentolae proteasome (Leishmania tarentolae, UniProt A0A640KTY7+A0A640KW57). Nature of the data set: chymotrypsin-like activity of purified wild-type L. tarentolae proteasome. Format: biochemical. Conditions: n = 3 technical replicates.
Sequence of wild-type (PSMB4^WT) L. tarentolae proteasome (A0A640KW57 100-302): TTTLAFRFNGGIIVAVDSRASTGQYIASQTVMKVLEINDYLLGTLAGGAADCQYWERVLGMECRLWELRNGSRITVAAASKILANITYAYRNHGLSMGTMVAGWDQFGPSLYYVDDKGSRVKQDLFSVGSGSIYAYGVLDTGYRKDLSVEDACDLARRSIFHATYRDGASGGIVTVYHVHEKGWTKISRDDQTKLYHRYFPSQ
Sequence of wild-type (PSMB4^WT) L. tarentolae proteasome (A0A640KTY7 1-206): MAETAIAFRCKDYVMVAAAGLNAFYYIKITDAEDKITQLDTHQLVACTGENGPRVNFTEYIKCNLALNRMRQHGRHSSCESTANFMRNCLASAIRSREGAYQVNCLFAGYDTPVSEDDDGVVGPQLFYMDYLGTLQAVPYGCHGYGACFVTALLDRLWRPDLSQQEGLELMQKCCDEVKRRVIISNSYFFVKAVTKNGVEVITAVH
For data set [2] the following is noted: microsomal extraction ratio, 1 h incubation in microsomes.
The conditions of data set [3]: microsomal extraction ratio, 1 h incubation in microsomes. The source holds these as a separate data set.
For data set [4] the following is noted: microsomal extraction ratio, 1 h incubation in microsomes. The source holds these as a separate data set.
The subject of data set [5] is intramacrophage L. donovani amastigotes. In words: L. donovani amastigote proliferation within primary mouse macrophages. Type of data set: cell-based. The following applies: Leishmania donovani, Macrophage.
A short description of data set [6]: high-throughput solubility pH 6.8. Format: physicochemical. Conditions: high-throughput assay format, read-out: HT sol. pH 6.8.
The conditions of data set [7]: microsomal extraction ratio, 1 h incubation in microsomes. The source holds these as a separate data set.
Data set [8] concerns the target T1, purified L. donovani proteasome (Leishmania donovani, UniProt A0A3Q8IIY4+A0A3S7XA80).
T1 sequence (A0A3Q8IIY4 100-302): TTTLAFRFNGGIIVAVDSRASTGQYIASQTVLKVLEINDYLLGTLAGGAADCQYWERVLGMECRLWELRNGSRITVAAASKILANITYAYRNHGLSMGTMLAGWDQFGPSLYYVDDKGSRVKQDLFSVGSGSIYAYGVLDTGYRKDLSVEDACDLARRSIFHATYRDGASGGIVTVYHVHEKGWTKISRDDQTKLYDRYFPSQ
T1 sequence (A0A3S7XA80 1-206): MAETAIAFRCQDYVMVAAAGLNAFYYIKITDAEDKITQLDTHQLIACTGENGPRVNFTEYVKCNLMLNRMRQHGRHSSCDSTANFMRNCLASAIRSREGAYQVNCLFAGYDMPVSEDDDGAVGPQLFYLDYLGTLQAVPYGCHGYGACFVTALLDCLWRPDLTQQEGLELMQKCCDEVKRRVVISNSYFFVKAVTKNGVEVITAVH
Nature of the data set: chymotrypsin-like activity of purified L. donovani proteasome. Format: biochemical. The following applies: half-maximum inhibition of chymotrypsin-like activity of purified L. donovani proteasome; mean, n = 4 technical replicates.

Data set [9] is described as follows: metabolite profile in human hepatocytes. Format: in vitro ADME. Conditions: 10 μM of 1 for 4 h, UV 250 nm, normalized to largest peak.
The conditions of data set [10]: rat plasma; oral administration of 1; dose-normalized AUC.
The conditions of data set [11]: mouse plasma; oral administration of 1; dose-normalized AUC.
Description: In Vivo PK Studies in Mice.
(§1) The solution was filtered using a 0.45 m syringe filter before dosing. Two male Balb/c mice were administered 1 intravenously via the lateral tail
(§2) vein at 5 mg/kg with a dose volume of 2.0 mL/kg. 1 was also formulated in a suspension of 0.5%
(§3) methylcellulose with 0.5% Tween 80 (0.5% MC/0.5% Tw80) in water at 2.5 mg/mL. A group of mice
(§4) (n=3) were administered 1 orally via gavage at 20 mg/kg with a dose volume of 8.0 mL/kg.
(§5) The mouse blood samples were centrifuged to separate plasma and the plasma samples were frozen at -
In Vivo PK Studies in Rats.
Two male Wistar rats were administered
(§6) 1 intravenously via the lateral tail vein at 3 mg/kg with a dose volume of 1.0 mL/kg. 1 was also formulated
(§7) in a suspension of 0.5% methylcellulose with 0.5% Tween 80 (0.5% MC/0.5% Tw80) in water at 2.0
(§8) mg/mL. The second group of rats (n=3) were administered 1 orally via gavage at 10 mg/kg in suspension
(§9) with a dose volume of 5.0 mL/kg. Six blood samples of 100 μL each were collected serially from each
(§10) animal via the saphenous vein up to 24 hours after dosing. The rat blood samples were centrifuged to
(§11) separate plasma and the plasma samples were frozen at -20°C until analysis.
In Vivo PK Studies in Dogs.
(§12) The solution was filtered using a 0.45 m syringe filter before dosing. Three male Beagle dogs were administered 1 intravenously via saphenous
(§13) vein at 0.3 mg/kg with a dose volume of 0.1 mL/kg. 1 was also formulated in a suspension of 0.5%
(§14) methylcellulose with 0.5% Tween 80 (0.5%MC/0.5% Tween 80) in water at 1.0 mg/mL. The second
(§15) group of male dogs (n=2) were administered 1- orally via gavage at 1.0 mg/kg with a dose volume of 1.0
(§16) mL/kg. Seven blood samples of 250 µL each were collected serially from each animal via the jugular vein
(§17) The dog blood samples were centrifuged to separate plasma and the plasma
(§18) samples were frozen at -20 °C until analysis.
Data set [12] is described as follows: metabolite profile in monkey hepatocytes. Format: in vitro ADME. Conditions: 10 μM of 1 for 4 h, UV 250 nm, normalized to largest peak.
A short description of data set [13]: metabolite profile in rat hepatocytes. Type of data set: in vitro ADME. Conditions: 10 μM of 1 for 4 h, UV 250 nm, normalized to largest peak.
Data set [14] can be described thus: pharmacokinetics, summary across preclinical species. Type of data set: in vivo, rat, dog, cynomolgus monkey. Conditions: mouse, rat, and monkey plasma; single oral dose of 1.
Data set [15] can be described thus: pharmacokinetics in cynomolgus monkey. Format: in vivo. The following applies: monkey plasma; oral administration of 1; dose-normalized AUC. On the procedure:
In Vivo Intravenous PK Study in Non-human Primates. The IV PK study in non-human primates was carried out at Covance research facility in Greenfield, Indiana. The research facility is accredited by AAALAC (Association for Assessment and Accreditation of Laboratory Animal Care). The male Cynomolgus monkeys were approximately 4.5 years of age and weighed 4.2 to 5.0 kg. 1 was administered […]
75% polyethylene glycol (PEG300) as described in the earlier section. Doses were administered once by intravenous injection via the saphenous vein at a dose of 0.3 mg/kg with a dosing volume of 0.1 ml/kg.
Clinical observations and food consumption determinations were performed on all animals. Blood samples for PK analysis were collected from all animals via the femoral vein approximately 0.083, 0.25, […]
In Vivo Oral PK Study in Non-human Primates. The PO PK study in non-human primates was conducted at a Novartis facility using Non-naïve male Cynomolgus monkeys weighing 3.8 to 4.0 kg. The monkeys were fasted overnight and fed 2 hours post-dose. 1 was formulated in a suspension of 0.5% […]
gavaged with 5 mL/kg of the suspension for a total dose of 10 mg/kg. The gavage tubing was flushed with 5 mL of water to ensure the gavage tubing was cleared of the formulation. Blood samples for PK analysis were collected from all animals via the saphenous veins approximately 0.25, 0.5, 1, 2, 4, 7, 24, 48, and 72 hours post-dose.

Data set [16] can be described thus: metabolite profile in mouse hepatocytes. Format: in vitro ADME. Conditions: 10 μM of 1 for 4 h, UV 250 nm, normalized to largest peak.
Data set [17] in a line: metabolite profile in dog hepatocytes. Format: in vitro ADME. The following applies: 10 μM of 1 for 4 h, UV 250 nm, normalized to largest peak.
The conditions of data set [18]: dog plasma; oral administration of 1; dose-normalized AUC.
Description: In Vivo PK Studies in Mice.
as §1, §2, §3, §4, §5
In Vivo PK Studies in Rats.
Two male Wistar rats were administered
as §6, §7, §8, §9, §10, §11
In Vivo PK Studies in Dogs.
as §12, §13, §14, §15, §16, §17, §18

Molecule `CC(C)C[C@H](NC(=O)[C@H](Cc1ccccc1)NC(=O)c1cnccn1)B(O)O` [Bortezomib, bortezomib, reference compound] gave a pIC50 in data set [1] of 8.40.
`Cc1nc(C)c(C(=O)Nc2ccc(F)c(-c3nc4ncc(-c5ccccn5)cn4n3)c2)o1` [compound 2]: the ER dog in data set [2] was 0.46. For the same molecule, the ER rat in [3] is less than 0.27. In data set [4], the ER human stood at 0.3.
In [5], `Cc1nc(C)c(C(=O)Nc2ccc(F)c(-c3nc4ncc(-c5ncccc5C(F)F)cn4n3)c2)o1` [compound 3] showed a pEC50 of 6.96. Also, the ER dog in [2] is 0.57. In addition, the solubility kinetic in data set [6] is 21 µM (≈ 10.1 µg/mL). Further, in data set [3], the ER rat is reported as less than 0.18. Also, in data set [7], the ER mouse was 0.51. For the same molecule, the pIC50 in [8] is 7.22. Also, the ER human in [4] is given as 0.55.
Consider `Cc1nc(C)c(C(=O)Nc2ccc(F)c(-c3nc4ncc(-c5ncccc5Cl)cn4n3)c2)o1` [compound 4], for which the pEC50 in data set [5] was 7.30. The solubility kinetic in data set [6] was 7 µM (≈ 3.25 µg/mL). The pIC50 in data set [8] is 7.00.
Turning to `COc1cccnc1-c1cnc2nc(-c3cc(NC(=O)c4oc(C)nc4C)ccc3F)nn2c1` [compound 5], the negative-log EC50 (pEC50) in [5] is 7.15. Moreover, the ER dog in data set [2] was 0.56. The solubility kinetic in data set [6] was found to be 7 µM (≈ 3.22 µg/mL). For the same molecule, the ER mouse in data set [7] is 0.4. In data set [4], the ER human was less than 0.21.
In data set [5], `Cc1nc(C)c(C(=O)Nc2ccc(F)c(-c3nc4ncc(-c5ncccc5CO)cn4n3)c2)o1` [compound 6] showed a pEC50 of 6.30. In addition, in data set [9], the abundance human result was “+ (+ ≤25%)”. Also, the “metabolite exposure relative to 1” value in [10] is recorded as 1.5%; in data set [11], 1.5%; in data set [14] it was “less than 10%”; in data set [15], 1.7%. Also, in data set [12], the abundance monkey result is recorded as “+ (+ ≤25%)”. This molecule had a pIC50 in data set [8] of 7.15. Moreover, in data set [13], the abundance rat entry is recorded as “+ (+ ≤25%)”. Further, in data set [16], the abundance mouse result is on record as “+ (+ ≤25%)”. In data set [17], the abundance dog result was “+ (+ ≤25%)”.
`Cc1nc(CO)c(C(=O)Nc2ccc(F)c(-c3nc4ncc(-c5ncccc5C)cn4n3)c2)o1` [compound 7]: the abundance human entry in data set [9] is “+ (+ ≤25%)”. For the same molecule, the “metabolite exposure relative to 1” value in data set [10] is 17%; in [11], 4.5%; in data set [14], 5–17%; in [15] it was 11%. Besides, the abundance monkey entry in data set [12] was “+ (+ ≤25%)”. Also, in data set [13], the abundance rat entry is reported as “+ (+ ≤25%)”. In addition, in data set [16], the abundance mouse result is “+ (+ ≤25%)”. Besides, the abundance dog entry in data set [17] was “+ (+ ≤25%)”.
As for `Cc1cccnc1-c1cnc2nc(-c3cc(NC(=O)c4oc(CO)nc4C)ccc3F)nn2c1` [compound 8], the abundance human entry in [9] is “+ (+ ≤25%)”. The “metabolite exposure relative to 1” value in [10] is 1.5%; in data set [11] it was 0.2%; in [14], 0.2–5%; in data set [18] it was 120%; in data set [15], 5.1%. The abundance monkey entry in data set [12] was “+ (+ ≤25%)”. Moreover, the abundance rat result in data set [13] is given as “+ (+ ≤25%)”. Besides, the abundance dog result in data set [17] is listed as “++ (++ ≤ 75%>25%)”.
